# Measured values from patent publication US20090143392A1, “Methods of Treating Obesity and Metabolic Disorders” (ELBION GMBH, priority 2007, published 2009).
# Key:
# PDE10 from rat striatum = target: T1, PDE10 from rat striatum (Rattus norvegicus, UniProt Q9QYJ6); assay: Inhibition of PDE10 from rat striatum; assay type: biochemical; conditions: 0.1 μM [3H]-cAMP, 37° C., 30 minutes
# T1 construct: 0.5 g of the isolated and frozen striatum was homogenised; from tissue; host or cells: rat striatum, ion-exchange FPLC fractions with PDE10 activity
# T1 sequence (Q9QYJ6 1-794): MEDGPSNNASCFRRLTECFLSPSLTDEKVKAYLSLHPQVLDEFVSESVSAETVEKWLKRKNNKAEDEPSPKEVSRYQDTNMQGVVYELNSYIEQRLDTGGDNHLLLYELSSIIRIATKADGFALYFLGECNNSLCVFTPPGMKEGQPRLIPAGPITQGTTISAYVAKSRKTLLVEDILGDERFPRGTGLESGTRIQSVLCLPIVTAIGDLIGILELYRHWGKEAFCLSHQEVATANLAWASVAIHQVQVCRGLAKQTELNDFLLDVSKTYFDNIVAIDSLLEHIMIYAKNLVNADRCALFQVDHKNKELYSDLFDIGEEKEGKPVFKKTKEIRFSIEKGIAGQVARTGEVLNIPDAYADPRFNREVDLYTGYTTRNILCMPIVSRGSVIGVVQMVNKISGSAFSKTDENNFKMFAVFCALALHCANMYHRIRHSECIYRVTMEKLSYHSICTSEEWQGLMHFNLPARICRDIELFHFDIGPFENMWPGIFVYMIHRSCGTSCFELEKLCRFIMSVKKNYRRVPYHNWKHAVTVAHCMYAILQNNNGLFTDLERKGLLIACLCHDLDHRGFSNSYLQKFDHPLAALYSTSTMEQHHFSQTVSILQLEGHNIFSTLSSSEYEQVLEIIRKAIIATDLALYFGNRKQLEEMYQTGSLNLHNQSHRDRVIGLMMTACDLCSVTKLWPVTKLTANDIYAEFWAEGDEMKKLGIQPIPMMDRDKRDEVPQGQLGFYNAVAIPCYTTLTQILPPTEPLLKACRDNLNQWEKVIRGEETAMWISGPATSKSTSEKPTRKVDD
# Experimental: (§1) Phosphodiesterase isoenzyme 10 (PDE10) activity was determined in preparations of rat, pig and guinea pig striatum respectively. Striatum from male Wistar rats (180-200 g), male hybrid pigs (150 kg) and male guinea pigs (CRL (HA), 500 g) respectively were collected and frozen at −70° C.
# (§2) For the enzymatic testing of PDE10 activity 0.5 g of the isolated and frozen striatum was homogenised in 10 ml 50 mM Tris/Mg-buffer at 4° C. and centrifuged for one hour at 100000 g.
# (§3) Nonspecific activity was tested without the enzyme. […] For determination of IC50 values the Hill-plot, 2-parameter-model, was used.
# PDE10 from pig striatum = target: T2, PDE10 from pig striatum (Sus scrofa, UniProt A0A287B941); assay: Inhibition of PDE10 from pig striatum; assay type: biochemical; conditions: 0.1 μM [3H]-cAMP, 37° C., 30 minutes
# T2 construct: "Striatum from male hybrid pigs (150 kg)"
# Experimental: Phosphodiesterase isoenzyme 10 (PDE10) activity was determined in preparations of human recombinant PDE10A and PDE10 from pig striatum, respectively.
# Striatum from male hybrid pigs (150 kg) were collected and frozen at −70° C.
# At the day of preparation 0.5 g striatum was homogenised in 10 ml 50 mM Tris/Mg-buffer at 4° C. and centrifuged for one hour at 100000 g.
# as §3, §1, §2
# [1] = target: PDE10 from guinea pig striatum (Cavia porcellus, UniProt A0A286XN47); assay: Inhibition of PDE10 from guinea pig striatum; assay type: biochemical; conditions: 0.1 μM [3H]-cAMP, 37° C., 30 minutes
# Experimental: as §1, §2, §3
# MK-801-induced psychosis = assay: MK-801-induced psychosis: hyperactivity and stereotyped sniffing; assay type: in vivo; conditions: female Wistar rats, MK-801 0.1 mg/kg i.p. 10 min before test, compound 30 min prior, recorded 1 h; for dose that significantly reversed MK-801-induced hyperactivity / dose that significantly reversed MK-801-induced stereotyped sniffing: p.o.
# Experimental: Female Wistar rats (Crl: (WI) BR, Charles River, Sulzfeld, Germany) weighing 150 to 180 g were used for the MK-801-induced psychosis. Animals were housed under standard conditions in groups of five on a 12 h light/dark cycle (light on at 0600 h) with ad libitum access to food (Pellets, ssniff M/R 15, Spezialdiät GmbH, Soest/Westfalen) and water.
# MK-801 (dizocilpine, MW 337.37) was obtained by Tocris, distributed by Biotrend Chemikalien GmbH, Köln, Germany.
# Hydroxyethylcellulose was solved in distilled water.
# MK-801 was solved in saline so that an administration volume of 0.5 ml/100 g was reached. The suspensions and solution were placed on a magnetic stirrer before and during dosing procedures.
# The behaviour induced by the NMDA antagonist MK-801 is generally accepted as a rat model of psychosis. MK-801 induces stereotyped sniffing, hyperactivity and ataxia in rats after intraperitoneal administration.
# Locomotor activity of the rats was recorded by the MotiTest Apparatus (TSE, Bad Homburg, Germany). The test area consisted of a squared arena (45×45 cm) with protective plexiglass walls (20 cm of height) where rats could freely move. Horizontal movements were recorded by 32 infrared photocells arranged along the bottom of each wall of the arena. The activity [sec] was measured by the computer program “ActiMot” (TSE, Bad Homburg, Germany).
# Stereotyped sniffing was scored by the experimenter every five minutes for one hour (12 intervals) according to the method described by Andine et al. (1999). The scores of the 12 intervals were summed up at the end of the recording time.
# The day of experiment the female rats were placed in the laboratory and received the test compound or vehicle at the appropriate time prior to test. MK-801 0.1 mg/kg was intraperitoneally administered 10 minutes prior to test.
# At the beginning of the test the rats were placed in the centre of the squared arena of the MotiTest apparatus. Behaviour of the rats was recorded for one hour. After each run animals were removed and the boxes thoroughly cleaned and dried.
# Results were analysed by one way analysis of variance (ANOVA). Tukey test was used for individual comparison. P<0.05 was regarded as significant.
# Chain of PDE10 from guinea pig striatum (A0A286XN47 1-773): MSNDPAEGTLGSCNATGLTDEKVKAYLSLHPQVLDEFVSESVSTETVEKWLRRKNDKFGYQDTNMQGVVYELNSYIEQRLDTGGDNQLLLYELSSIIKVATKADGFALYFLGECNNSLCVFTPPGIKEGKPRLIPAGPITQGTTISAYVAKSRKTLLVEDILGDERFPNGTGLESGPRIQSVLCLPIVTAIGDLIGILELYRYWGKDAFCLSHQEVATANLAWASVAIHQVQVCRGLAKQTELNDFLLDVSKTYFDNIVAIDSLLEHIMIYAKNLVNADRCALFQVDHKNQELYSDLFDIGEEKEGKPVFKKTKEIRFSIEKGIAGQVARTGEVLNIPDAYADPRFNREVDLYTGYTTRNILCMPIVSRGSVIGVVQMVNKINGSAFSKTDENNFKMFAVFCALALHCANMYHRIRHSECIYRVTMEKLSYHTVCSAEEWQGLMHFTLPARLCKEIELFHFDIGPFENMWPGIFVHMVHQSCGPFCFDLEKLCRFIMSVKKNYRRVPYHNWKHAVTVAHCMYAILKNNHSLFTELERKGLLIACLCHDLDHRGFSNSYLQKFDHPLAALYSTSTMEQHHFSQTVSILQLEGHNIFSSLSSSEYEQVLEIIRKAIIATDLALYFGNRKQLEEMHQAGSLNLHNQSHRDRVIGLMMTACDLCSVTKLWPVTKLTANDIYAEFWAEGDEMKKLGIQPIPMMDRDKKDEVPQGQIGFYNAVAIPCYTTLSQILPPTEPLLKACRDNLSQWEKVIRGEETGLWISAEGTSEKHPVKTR
Compound,IC50 (PDE10 from rat striatum),IC50 (PDE10 from pig striatum),also measured
"1-ethyl-4-(N-formyl-amino)-8-methoxy-3-methyl-imidazo[1,5-a]pyrido[3,2-e]pyrazine [Example 36b]",241 nM,80 nM,
"4-(N-formyl-amino)-8-methoxy-3-methyl-1-propyl-imidazo[1,5-a]pyrido[3,2-e]pyrazine [Example 37b]",50 nM,29 nM,
"4-amino-1-(2-chloro-phenyl)-8-methoxy-3-methyl-imidazo[1,5-a]pyrido[3,2-e]pyrazine [Example 11b]",,0.5 nM,dose that significantly reversed MK-801-induced hyperactivity (MK-801-induced psychosis): ≥ 0.5 mg/kg; dose that significantly reversed MK-801-induced stereotyped sniffing (MK-801-induced psychosis): ≥ 0.5 mg/kg
"4-amino-3-methyl-1-propyl-imidazo[1,5-a]pyrido[3,2-e]pyrazine [Example 4b]",57 nM,27 nM,
"4-amino-8-methoxy-3-methyl-1-phenyl-imidazo[1,5-a]pyrido[3,2-e]pyrazine [Example 10b]",5 nM,3 nM,
"4-cyano-8-methoxy-3-methyl-1-propyl-imidazo[1,5-a]pyrido[3,2-e]pyrazine [Example 29a]",,,IC50 [1]: 18 nM; dose that significantly reversed MK-801-induced stereotyped sniffing (MK-801-induced psychosis): ≥ 5 mg/kg
"8-methoxy-3-methyl-1-propyl-imidazo[1,5-a]pyrido[3,2-e]pyrazine [Example 35a]",61 nM,40 nM,dose that significantly reversed MK-801-induced hyperactivity (MK-801-induced psychosis): 30 mg/kg; dose that significantly reversed MK-801-induced stereotyped sniffing (MK-801-induced psychosis): ≥ 30 mg/kg

# Now from value to compound, other results behind:
IC50 (PDE10 from rat striatum),IC50 (PDE10 from pig striatum),Compound,also measured
,2 nM,"3,4-dimethyl-8-(2-propyl-4-methyl-imidazol-1-yl)-methoxy-1-propyl-imidazo[1,5-a]pyrido[3,2-e]pyrazine [Example 58a]",IC50 [1]: 4 nM
,6 nM,"3,4-dimethyl-8-methoxy-1-phenyl-imidazo[1,5-a]pyrido[3,2-e]pyrazine [Example 47a]",IC50 [1]: 15 nM
220 nM,,"4-(N-acetyl-amino)-1-ethyl-8-methoxy-3-methyl-imidazo[1,5-a]pyrido[3,2-e]pyrazine [Example 40b]",
95 nM,41 nM,"4-(N-acetyl-amino)-8-methoxy-3-methyl-1-phenyl-imidazo[1,5-a]pyrido[3,2-e]pyrazine [Example 42b]",
8 nM,4 nM,"4-chloro-8-methoxy-3-methyl-1-propyl-imidazo[1,5-a]pyrido[3,2-e]pyrazine [Intermediate A1]",
563 nM,189 nM,"4-ethoxycarbonylamino-8-methoxy-3-methyl-1-propyl-imidazo[1,5-a]pyrido[3,2-e]pyrazine [Example 63a]",
2410 nM,896 nM,"8-methoxy-3-methyl-4-(N-propionyl-amino)-1-propyl-imidazo[1,5-a]pyrido[3,2-e]pyrazine [Example 43b]",
72 nM,,"CCCc1nc(C)c2c(N(S(C)(=O)=O)S(C)(=O)=O)nc3ccc(OC)nc3n12 [Example 70a, 4-(N,N-bis-methylsulfonyl)-amino-8-methoxy-3-methyl-1-propyl-imidazo[1,5-a]pyrido[3,2-e]pyrazine]",
159 nM,108 nM,"CCCc1nc(C)c2n1-c1nc(OC)ccc1NC2 [Example 91a, 8-methoxy-3-methyl-1-propyl-4,5-dihydro-imidazo[1,5-a]pyrido[3,2-e]pyrazine]",dose that significantly reduced MK-801-induced hyperactivity (MK-801-induced psychosis; i.p.): ≥ 15 mg/kg; dose that significantly reduced MK-801-induced stereotyped sniffing (MK-801-induced psychosis; i.p.): ≥ 15 mg/kg; melting point: 157 to 160 °C
335 nM,222 nM,"CCCc1nc(C)c2n1-c1nc(OC)ccc1N(C(C)=O)C2 [Example 95a, 5-acetyl-8-methoxy-3-methyl-1-propyl-4,5-dihydro-imidazo[1,5-a]pyrido[3,2-e]pyrazine]",dose that significantly reversed MK-801-induced hyperactivity (MK-801-induced psychosis): 30 mg/kg; dose that significantly reversed MK-801-induced stereotyped sniffing (MK-801-induced psychosis): 30 mg/kg
171 nM,97 nM,CCc1nc(C)c2c(Cl)nc3cccnc3n12 [Intermediate A11],melting point: 117 to 120 °C
